Test system: IgE antibodies from patients
Experiment: Epitope mapping (2) overlapping (10-amino-acid peptides) and (3) alanine scanning on peptide arrays
Type: binding, human
Conditions: for region within the epitope important for binding to IgE antibodies from patients: procedures (B) overlapping and (C) alanine scanning; for binding to IgE antibodies from patients, sequence comprising a region amino-terminally adjacent to the epitope / binding to IgE antibodies from patients, sequence comprising a region carboxy-terminally adjacent to the epitope: overlapping peptides with flanking sequence
Protocol: On the basis of the sequences (SEQ ID NOs: 272-295 for vitellogenin-2 precursor, SEQ ID NOs: 296-303 for vitellogenin-3, SEQ ID NOs: 304-311 for apolipoprotein B precursor, and SEQ ID NOs: 312-318 for vitellogenin-1 or lipovitellin-1) of the peptides bound to an IgE antibody in serum in a patient-specific manner as described above in (A), a library of overlapping peptide fragments (length: 10 amino acids) was prepared using the sequences of the peptides and sequences in which sequences were added so as to flank each peptide in the amino acid sequences of allergen components (amino acid sequences of SEQ ID NO: 59, 106 or 262 for vitellogenin-2 precursor, SEQ ID NO: 2, 13 or 47 for vitellogenin-3, SEQ ID NO: 152, 237 or 251 for apolipoprotein B, and SEQ ID NO: 18 for vitellogenin-1 or lipovitellin-1) comprising the sequences of the peptide to carry out epitope mapping.
The peptides to be synthesized were shifted by one amino acid.
The library was prepared by the same procedure as described above in (A), and the presence or absence of binding of an IgE antibody present in the serum of a patient and a non-egg-allergic subject to each peptide fragment was measured by the same technique as described above. Amino acids at positions where the binding activity against IgE antibodies from patients were lost or decreased in the peptides shifted by one amino acid while binding activity against IgE antibodies from non-egg-allergic subjects arose were confirmed as amino acids adversely affecting the specificity of binding to IgE antibodies.
Chemiluminescence intensity in images obtained by measurement was converted into a numeric value in the same manner as in (A) using ImageQuant TL (GE Healthcare). Numeric values determined from images obtained as a result of using only anti-human IgE antibody-HRP antibody without carrying out the procedures (2) and (3) described above in the subsection titled (3) Spotting of cellulose-bound peptide solution were […] numeric values determined from images obtained from results about the serum of 6 patients. It was determined that a peptide having the resulting value larger than 0 had no binding activity against IgE antibodies when having less than 20% of values obtained using the sequences (amino acid sequences of SEQ ID NO: 59, 106 or 262 for vitellogenin-2, SEQ ID NO: 2, 13 or 47 for vitellogenin-3, SEQ ID NO: 152, 237 or 251 for apolipoprotein B, and SEQ ID NO: 18 for vitellogenin-1 or lipovitellin-1) serving as the basis of overlapping, had binding activity, albeit poor, against IgE antibodies when having 20% or more and less than 50% thereof, had binding activity, albeit somewhat poor, against IgE antibodies when having 50% or more and less than 70% thereof, had almost equivalent binding activity against IgE antibodies when having 70% or more and less than 90% thereof, and had equivalent or good binding activity against IgE antibodies and thus had remaining binding activity against IgE antibodies when having 90% or more thereof.
From the amino acid sequences identified above in (A), a library of peptide fragments in which N-terminal amino acids were substituted one by one by alanine according to a technique called alanine scanning (Non Patent Literature 1) was prepared by the same technique as described above. The presence or absence of binding of an IgE antibody present in the serum of a patient and a non-egg-allergic subject to each peptide fragment was measured by the same technique as described above. Amino acids at positions where the binding activity against IgE antibodies from patients were lost or decreased by the substitution by alanine while binding activity against IgE antibodies from non-egg-allergic subjects arose were confirmed as amino acids important for exertion of original antigenicity, or amino acids influencing exertion of original antigenicity.

SEQ ID NO: 589: region in epitope 37 (IVTPGAKVAV; epitope)
region within the epitope important for binding to IgE antibodies from patients: important for binding

SEQ ID NO: 412: region in epitope 10 (MKTVVEPA; epitope)
region within the epitope important for binding to IgE antibodies from patients: important for binding

SEQ ID NO: 565: sequence comprising a region amino-terminally adjacent to epitope 34 (QDGTKVKLY; epitope)
binding to IgE antibodies from patients, sequence comprising a region amino-terminally adjacent to the epitope: binding to IgE antibodies from patients

SEQ ID NO: 393: sequence comprising a region carboxy-terminally adjacent to epitope 8 (LPTETPLV; epitope)
binding to IgE antibodies from patients, sequence comprising a region carboxy-terminally adjacent to the epitope: binding to IgE antibodies from patients

SEQ ID NO: 458: region in epitope 17 (KWKLCADAS; epitope)
region within the epitope important for binding to IgE antibodies from patients: important for binding

SEQ ID NO: 581: region in epitope 35 (SVPGLNP; epitope)
region within the epitope important for binding to IgE antibodies from patients: important for binding

SEQ ID NO: 669: region in epitope 47 (YSDVPIEKI; epitope)
region within the epitope important for binding to IgE antibodies from patients: important for binding

SEQ ID NO: 350: region in epitope 4 (AWKDPKTV; epitope)
region within the epitope important for binding to IgE antibodies from patients: important for binding

SEQ ID NO: 480: sequence comprising a region amino-terminally adjacent to epitope 20 (AGEATNLKAI; epitope)
binding to IgE antibodies from patients, sequence comprising a region amino-terminally adjacent to the epitope: binding to IgE antibodies from patients

SEQ ID NO: 366: region in epitope 6 (SPRTMFPSAI; epitope)
region within the epitope important for binding to IgE antibodies from patients: important for binding

SEQ ID NO: 377: sequence comprising a region amino-terminally adjacent to epitope 8 (IKELGKALQG; epitope)
binding to IgE antibodies from patients, sequence comprising a region amino-terminally adjacent to the epitope: binding to IgE antibodies from patients

SEQ ID NO: 595: sequence comprising a region carboxy-terminally adjacent to epitope 37 (AKVAVKLHQK; epitope)
binding to IgE antibodies from patients, sequence comprising a region carboxy-terminally adjacent to the epitope: binding to IgE antibodies from patients

SEQ ID NO: 344: region in epitope 4 (KIAWKDPKTV; epitope)
region within the epitope important for binding to IgE antibodies from patients: important for binding

SEQ ID NO: 464: region in epitope 19 (FNEVKFNYSM; epitope)
region within the epitope important for binding to IgE antibodies from patients: important for binding

SEQ ID NO: 598: region in epitope 37 (SGIVTPGA; epitope)
region within the epitope important for binding to IgE antibodies from patients: important for binding

SEQ ID NO: 613: sequence comprising a region amino-terminally adjacent to epitope 39 (ANELLDR; epitope)
binding to IgE antibodies from patients, sequence comprising a region amino-terminally adjacent to the epitope: binding to IgE antibodies from patients

SEQ ID NO: 384: sequence comprising a region amino-terminally adjacent to epitope 8 (IKELGKALQG; epitope)
binding to IgE antibodies from patients, sequence comprising a region amino-terminally adjacent to the epitope: binding to IgE antibodies from patients

SEQ ID NO: 497: sequence comprising a region amino-terminally adjacent to epitope 21 (GFALAAPGHG; epitope)
binding to IgE antibodies from patients, sequence comprising a region amino-terminally adjacent to the epitope: binding to IgE antibodies from patients

SEQ ID NO: 544: region in epitope 27 (YDAEKK; epitope)
region within the epitope important for binding to IgE antibodies from patients: important for binding

SEQ ID NO: 471: sequence comprising a region amino-terminally adjacent to epitope 20 (GEATNLKAIN; epitope)
binding to IgE antibodies from patients, sequence comprising a region amino-terminally adjacent to the epitope: binding to IgE antibodies from patients

SEQ ID NO: 658: region in epitope 46 (MKMSFDSDS; epitope)
region within the epitope important for binding to IgE antibodies from patients: important for binding

SEQ ID NO: 663: region in epitope 46 (PDIMKMSFDS; epitope)
region within the epitope important for binding to IgE antibodies from patients: important for binding

SEQ ID NO: 402: sequence comprising a region carboxy-terminally adjacent to epitope 8 (LPTETPLVSA; epitope)
binding to IgE antibodies from patients, sequence comprising a region carboxy-terminally adjacent to the epitope: binding to IgE antibodies from patients

SEQ ID NO: 657: sequence comprising a region amino-terminally adjacent to epitope 46 (VPDIMKMSFD; epitope)
binding to IgE antibodies from patients, sequence comprising a region amino-terminally adjacent to the epitope: binding to IgE antibodies from patients

SEQ ID NO: 470: region in epitope 20 (EATNLKAIN; epitope)
region within the epitope important for binding to IgE antibodies from patients: important for binding

SEQ ID NO: 436: region in epitope 15 (SSSNSKSSSS; epitope)
region within the epitope important for binding to IgE antibodies from patients: important for binding

SEQ ID NO: 380: sequence comprising a region carboxy-terminally adjacent to epitope 8 (ELPTETPLVS; epitope)
binding to IgE antibodies from patients, sequence comprising a region carboxy-terminally adjacent to the epitope: binding to IgE antibodies from patients

SEQ ID NO: 339: region in epitope 4 (ALKKIAWKDP; epitope)
region within the epitope important for binding to IgE antibodies from patients: important for binding

SEQ ID NO: 407: region in epitope 9 (ELLQQ; epitope)
region within the epitope important for binding to IgE antibodies from patients: important for binding

SEQ ID NO: 434: region in epitope 15 (SSSSSNSKS; epitope)
region within the epitope important for binding to IgE antibodies from patients: important for binding

SEQ ID NO: 542: sequence comprising a region carboxy-terminally adjacent to epitope 27 (YDAEKKRE; epitope)
binding to IgE antibodies from patients, sequence comprising a region carboxy-terminally adjacent to the epitope: binding to IgE antibodies from patients

SEQ ID NO: 495: sequence comprising a region carboxy-terminally adjacent to epitope 21 (YFDGKTITIQ; epitope)
binding to IgE antibodies from patients, sequence comprising a region carboxy-terminally adjacent to the epitope: binding to IgE antibodies from patients

SEQ ID NO: 616: region in epitope 39 (LLDRKVALT; epitope)
region within the epitope important for binding to IgE antibodies from patients: important for binding

SEQ ID NO: 531: region in epitope 26 (GLLIS; epitope)
region within the epitope important for binding to IgE antibodies from patients: important for binding

SEQ ID NO: 619: region in epitope 39 (DRKVALTDMT; epitope)
region within the epitope important for binding to IgE antibodies from patients: important for binding

SEQ ID NO: 617: region in epitope 39 (LLDR; epitope)
region within the epitope important for binding to IgE antibodies from patients: important for binding

SEQ ID NO: 539: region in epitope 27 (CGICGKYDA; epitope)
region within the epitope important for binding to IgE antibodies from patients: important for binding

SEQ ID NO: 674: region in epitope 47 (YSDVPIEK; epitope)
region within the epitope important for binding to IgE antibodies from patients: important for binding
